Our source for the IC50 values is patent US20250289789A1, “REVERSIBLE LYSINE COVALENT MODIFIERS OF CDK2 AND USES THEREOF” (Terremoto Biosciences, Inc., priority 2023, published 2025).

What all share (type): cell-based
In test [1] the target is T1, CDK1-NanoLuc fusion with CCNB1 in 293T or 293 cells (Homo sapiens, UniProt P06493).
T1 construct: host or cells: 293T (ATCC CRL-3216) or 293 (ATCC CRL-1573)
Briefly: NanoBRET Target Engagement (TE) Intracellular Kinase Assay, CDK1/CCNB1. The following applies: NanoBRET TE intracellular kinase assay, 2-hour incubation, read-out: NanoBRET-CDK1/B1 IC50. The gist of the method:
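293T or 293 cells co-transfected with CDK1-NanoLuc and CCNB1 vectors, incubated 24 h, then exposed to NanoBRET Tracer K-10 plus compound for 2 h at 37° C. BRET ratio (610/450 nm) normalized to DMSO; IC50 from four-parameter logistic fit.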

The target of test [2] is T2, CDK2-NanoLuc fusion with CCNE1 in 293T or 293 cells (Homo sapiens, UniProt P24941).
T2 construct: host or cells: 293T (ATCC CRL-3216) or 293 (ATCC CRL-1573)
Briefly: NanoBRET Target Engagement (TE) Intracellular Kinase Assay, CDK2/CCNE1. To be noted: NanoBRET TE intracellular kinase assay, 2-hour incubation, read-out: NanoBRET-CDK2/E1 IC50. (In BRET a luciferase serves as donor, and the signal depends on an acceptor being close.)

Test [3] addresses T3, CDK4-NanoLuc fusion with CCND1 in 293T or 293 cells (Homo sapiens, UniProt P11802).
T3 construct: host or cells: 293T (ATCC CRL-3216) or 293 (ATCC CRL-1573)
Briefly: NanoBRET Target Engagement (TE) Intracellular Kinase Assay, CDK4/CCND1. To be noted: NanoBRET TE intracellular kinase assay, 2-hour incubation, read-out: NanoBRET-CDK4/D1 IC50.

Test [4] relates to Phospho-Rb Ser807/811 in OVCAR3 cells. Briefly: OVCAR3 Phospho-Rb Ser807/811 HTRF assay. The following applies: OVCAR3 cells, Phospho-Rb Ser807/811 HTRF, 1 hour incubation, read-out: pRb-OVCAR3 IC50. As for the experimental part: Cells were trypsinized and resuspended in 1 mM hydroxyurea (Sigma; H8627), 90% RPMI and 10% fetal bovine serum. […] Dose response curve normalized to DMSO control was plotted using four-parameter logistic model for IC50 calculation.
A general note: TR-FRET usually uses a lanthanide donor and a delayed reading to cut background.

Like-named read-outs stand apart in the source and are kept apart here. Bounds are passed on as bounds.

T3 sequence (P11802 whole entry, the tested form may be a part): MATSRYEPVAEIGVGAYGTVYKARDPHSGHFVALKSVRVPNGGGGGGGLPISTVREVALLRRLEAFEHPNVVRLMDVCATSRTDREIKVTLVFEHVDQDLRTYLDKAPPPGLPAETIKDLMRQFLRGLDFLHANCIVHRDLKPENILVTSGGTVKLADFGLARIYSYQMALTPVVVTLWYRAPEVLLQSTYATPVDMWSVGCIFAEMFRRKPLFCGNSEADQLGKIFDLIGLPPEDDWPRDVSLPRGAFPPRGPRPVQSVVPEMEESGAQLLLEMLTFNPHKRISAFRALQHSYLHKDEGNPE
T3 sequence (P24385 whole entry partner, the tested form may be a part): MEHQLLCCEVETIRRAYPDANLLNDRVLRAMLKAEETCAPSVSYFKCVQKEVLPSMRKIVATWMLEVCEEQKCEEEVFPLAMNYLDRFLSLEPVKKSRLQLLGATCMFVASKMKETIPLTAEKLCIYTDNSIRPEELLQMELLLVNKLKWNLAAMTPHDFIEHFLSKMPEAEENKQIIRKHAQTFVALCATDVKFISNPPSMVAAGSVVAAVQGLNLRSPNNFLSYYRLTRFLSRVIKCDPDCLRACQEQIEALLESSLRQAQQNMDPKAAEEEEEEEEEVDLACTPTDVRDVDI
T1 sequence (P06493 whole entry, the tested form may be a part): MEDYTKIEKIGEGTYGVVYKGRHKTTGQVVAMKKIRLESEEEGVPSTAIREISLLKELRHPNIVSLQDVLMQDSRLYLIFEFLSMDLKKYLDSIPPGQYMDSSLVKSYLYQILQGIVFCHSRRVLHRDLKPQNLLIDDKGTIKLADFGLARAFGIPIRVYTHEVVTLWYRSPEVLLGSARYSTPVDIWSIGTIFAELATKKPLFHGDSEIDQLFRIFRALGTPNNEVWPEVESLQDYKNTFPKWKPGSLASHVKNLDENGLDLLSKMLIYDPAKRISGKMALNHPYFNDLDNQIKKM
T1 sequence (P14635 whole entry partner, the tested form may be a part): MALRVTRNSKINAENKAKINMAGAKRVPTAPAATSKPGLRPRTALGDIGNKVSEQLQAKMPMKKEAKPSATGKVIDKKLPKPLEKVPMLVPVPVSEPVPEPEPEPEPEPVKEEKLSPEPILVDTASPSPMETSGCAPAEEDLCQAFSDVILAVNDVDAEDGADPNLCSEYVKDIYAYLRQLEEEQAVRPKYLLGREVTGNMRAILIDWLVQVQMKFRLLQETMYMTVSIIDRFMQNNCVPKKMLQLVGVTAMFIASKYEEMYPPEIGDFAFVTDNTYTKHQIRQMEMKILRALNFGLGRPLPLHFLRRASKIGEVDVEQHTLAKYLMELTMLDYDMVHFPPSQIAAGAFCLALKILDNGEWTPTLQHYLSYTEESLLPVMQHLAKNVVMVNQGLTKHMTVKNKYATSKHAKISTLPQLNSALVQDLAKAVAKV

For `COc1cc(O)c(C=O)c(OCC(=O)Nc2cc([C@H]3CC[C@@H](OC(=O)NCCC#N)C3)[nH]n2)c1` [Compound 208], the IC50 in test [1] was determined as 21.2 nM; in test [2], 9.87 nM; in test [3] it was 7910 nM; in test [4] (Homo sapiens, OVCAR-3, 1 h), 41.8 nM.
The matching figures for `COCC1(NC(=O)O[C@@H]2CC[C@H](c3cc(NC(=O)COc4cc(OC)cc(O)c4C=O)n[nH]3)C2)CC1` [Compound 209]: 5.94 nM, 6.55 nM, 3870 nM and 28.7 nM.
In the case of `COCCOCCNC(=O)O[C@@H]1CC[C@H](c2cc(NC(=O)COc3cc(OC)cc(O)c3C=O)n[nH]2)C1` [Compound 210], the IC50 was 26.3 nM in test [1]; 6.9 nM in test [2]; over 10000 nM in test [3]; 68.5 nM in test [4] (Homo sapiens, OVCAR-3, 1 h).
`CCOc1cc(O)c(C=O)c(OCC(=O)Nc2cc([C@H]3CC[C@@H](OC(=O)N4CCC4(C)C)C3)[nH]n2)c1` [Compound 211, (1R,3S)-3-(3-(2-(5-ethoxy-2-formyl-3-hydroxyphenoxy)acetamido)-1H-pyrazol-5-yl)cyclopentyl 2,2-dimethylazetidine-1-carboxylate]: the IC50 in test [1] came out at 9.01 nM; in test [2], 2.68 nM; in test [3] it was 2120 nM; in test [4] (Homo sapiens, OVCAR-3, 1 h) it was 34.5 nM.
As for `COc1cc(O)c(C=O)c(OCC(=O)Nc2cc([C@H]3CC[C@@H](OC(=O)N4[C@@H](C)COC[C@@H]4C)C3)[nH]n2)c1` [Compound 212], the IC50 in test [1] came out at 6.31 nM; in test [2], 2.98 nM; in test [3], 1070 nM; in test [4] (Homo sapiens, OVCAR-3, 1 h), 21.8 nM.
As to `COCCNC(=O)O[C@@H]1CC[C@H](c2cc(NC(=O)COc3cc(OC)cc(O)c3C=O)n[nH]2)C1` [Compound 213], the IC50 in test [1] was 30.1 nM; in test [2] it was 4.72 nM; in test [3], over 10000 nM; in test [4] (Homo sapiens, OVCAR-3, 1 h) it was 35.6 nM.
Turning to `COc1cc(OC)c2c(c1C=O)C[C@H](C(=O)Nc1cc([C@H]3C[C@@H](OC(=O)NC(C)C)C3)[nH]n1)C2` [Compound 214], the IC50 in test [1] is 155 nM; in test [2], 56.8 nM; in test [3], over 3460 nM; in test [4] (Homo sapiens, OVCAR-3, 1 h) it was 375 nM.
In the case of `COc1cc(O)c(C=O)c(OCC(=O)Nc2cc([C@H]3CC[C@@H](OC(=O)NC4(C#N)CC4)C3)[nH]n2)c1` [Compound 215], the IC50 is 20.6 nM in test [1]; 10.3 nM in test [2]; over 6270 nM in test [3]; 41.5 nM in test [4] (Homo sapiens, OVCAR-3, 1 h).
On to `C#C[C@H](C)NC(=O)O[C@@H]1CC[C@H](c2cc(NC(=O)COc3cc(OC)cc(O)c3C=O)n[nH]2)C1` [Compound 216], for which the IC50 in test [1] came out at 15 nM; in test [2], 4.44 nM; in test [3] it was 9910 nM; in test [4] (Homo sapiens, OVCAR-3, 1 h) it was 64.6 nM.
With `COc1cc(O)c(C=O)c(OCC(=O)Nc2cc([C@H]3CC[C@@H](OC(=O)NN4CCCC4)C3)[nH]n2)c1` [Compound 217], the IC50 in test [1] is 44.7 nM; in test [2], 2.98 nM; in test [3], over 10000 nM; in test [4] (Homo sapiens, OVCAR-3, 1 h), 60.9 nM.
On the same counts, the results for `C#CC1(NC(=O)O[C@@H]2CC[C@H](c3cc(NC(=O)COc4cc(OC)cc(O)c4C=O)n[nH]3)C2)CC1` [Compound 218] are 5.53 nM, 2.33 nM, 2900 nM and 18.2 nM.
On the same counts, the results for `COc1cc(O)c(C=O)c(OCC(=O)Nc2cc([C@H]3CC[C@@H](OC(=O)N4C[C@@H]5CC[C@H]4C5)C3)[nH]n2)c1` [Compound 219] are 4.23 nM, 1.95 nM, 844 nM and 22.6 nM.
As to `COc1cc(O)c(C=O)c(OCC(=O)Nc2cc([C@H]3CC[C@@H](OC(=O)N4C5CCCC4C5)C3)[nH]n2)c1` [Compound 220], the IC50 is 8.36 nM in test [1]; 2.89 nM in test [2]; 1460 nM in test [3]; 32.1 nM in test [4] (Homo sapiens, OVCAR-3, 1 h).
On the same counts, the results for `CCCNC(=O)O[C@@H]1CC[C@H](c2cc(NC(=O)COc3cc(OC)cc(O)c3C=O)n[nH]2)C1` [Compound 221] are 8.56 nM, 1.71 nM, 5250 nM and 24.1 nM.
Turning to `C#C[C@@H]1CCCN1C(=O)O[C@@H]1CC[C@H](c2cc(NC(=O)COc3cc(OC)cc(O)c3C=O)n[nH]2)C1` [Compound 222], the IC50 in test [1] turned out to be 7.61 nM; in test [2], 3.84 nM; in test [3], 2830 nM; in test [4] (Homo sapiens, OVCAR-3, 1 h) it was 63.7 nM.
Take `COc1cc(O)c(C=O)c(OCC(=O)Nc2cc([C@H]3C[C@@H](OC(=O)NC(C)C)C3)[nH]n2)c1` [Compound 223]: the IC50 in test [1] is 13.1 nM; in test [2] it was 4.13 nM; in test [3], over 10000 nM; in test [4], 65.6 nM.
Regarding `COc1cc(O)c(C=O)c(OCC(=O)Nc2cc([C@H]3CC[C@@H](OC(=O)N4CCCO4)C3)[nH]n2)c1` [Compound 224], the IC50 is 28.9 nM in test [1]; 2.64 nM in test [2]; over 10000 nM in test [3]; 93.6 nM in test [4] (Homo sapiens, OVCAR-3, 1 h).
`CCCN(C)C(=O)O[C@@H]1CC[C@H](c2cc(NC(=O)COc3cc(OC)cc(O)c3C=O)n[nH]2)C1` [Compound 225]: the IC50 was 5.09 nM in test [1]; 2.49 nM in test [2]; 2600 nM in test [3]; 18.7 nM in test [4] (Homo sapiens, OVCAR-3, 1 h).
On the same counts, the results for `COc1cc(O)c(C=O)c(OCC(=O)Nc2cc([C@H]3CC[C@@H](OC(=O)N4CC5CC(C5)C4)C3)[nH]n2)c1` [Compound 226] are 9.17 nM, 2.45 nM, 3060 nM and 63.7 nM.
The matching figures for `COc1cc(OC)c(C=O)c(OCC(=O)Nc2cc([C@H]3CC[C@@H](OC(=O)N4CCC4(C)C)C3)[nH]n2)c1` [Compound 227]: 0.61 nM, 1.73 nM, 1290 nM and 18.1 nM.
For the compound `COc1cc(O)c(C=O)c(OCC(=O)Nc2cc([C@H]3CC[C@@H](OC(=O)N4CC5CC4C5)C3)[nH]n2)c1` [Compound 228], the IC50 was 4.25 nM in test [1]; 2.27 nM in test [2]; 4170 nM in test [3]; 34.4 nM in test [4] (Homo sapiens, OVCAR-3, 1 h).
As to `COc1cc(O)c(C=O)c(OCC(=O)Nc2cc([C@H]3CC[C@@H](OC(=O)N4C5CCC4CC5)C3)[nH]n2)c1` [Compound 229], the IC50 turned out to be 1.97 nM in test [1]; 1.75 nM in test [2]; 1900 nM in test [3]; 28.8 nM in test [4] (Homo sapiens, OVCAR-3, 1 h).
`COc1cc(O)c(C=O)c(OCC(=O)Nc2cc([C@H]3CC[C@@H](OC(=O)N4CCOCC4)C3)[nH]n2)c1` [Compound 230]: the IC50 is 21 nM in test [1]; 2.85 nM in test [2]; over 10000 nM in test [3]; 57.8 nM in test [4] (Homo sapiens, OVCAR-3, 1 h).
On the same counts, the results for `COc1cc(O)c(C=O)c(OCC(=O)Nc2cc([C@H]3CC[C@@H](OC(=O)N4C5COCC4C5)C3)[nH]n2)c1` [Compound 231, (1R,3S)-3-{5-[2-(2-formyl-3-hydroxy-5-methoxyphenoxy)acetamido]-2H-pyrazol-3-yl}cyclopentyl 3-oxa-6-azabicyclo[3.1.1]heptane-6-carboxylate] are under 2.64 nM, 3.2 nM, 1430 nM and 18.5 nM.
